Results: PubChem BioAssay AID2305 (GlaxoSmithKline (GSK), 2010)
Where “and” joins values, the source holds several entries; their conditions need not be identical. Identical values can stand only once.

The compounds below were run on P. falciparum 3D7 growth, pLDH absorbance (assay: P. falciparum 3D7 growth inhibition, dose response, strain 3D7 (AID 2305)).
In the case of `COc1ccc(-c2ccccc2)cc1NC(=S)NC1CCC(CN2CCC(c3c[nH]c4ccccc34)CC2)CC1` (stereo not given), the IC50 is reported as 650 nM and 740 nM. Work on `COc1ccc(OC)c(NC(=O)C2c3ccccc3C(=O)N(CC(C)C)C2c2cccs2)c1` (stereo not given) yielded an IC50 of 810 nM. For `NC1=NC(CCc2ccccc2)N(c2ccc(Cl)cc2)C(N)=N1` (stereo not given), the IC50 was 40 nM. With `O=C(Nc1cccc(-c2cccc(CN3CCCC3)c2)c1)c1ccc(Cl)cc1` the IC50 was 680 nM. In the case of `O=C(C=Cc1ccc(Cl)c(Cl)c1)NCCCCCN1CCC(CCNC(=O)c2sc3ccccc3c2Cl)CC1`, the IC50 is reported as 1010 nM. `Cc1cc2nc(-c3ccc(/C=C/C(=O)NCc4ccc(Cl)c(Cl)c4)cc3)[nH]c2cc1C` was tested, and the IC50 was 820 nM. Work on `CN1CCc2cc(NS(=O)(=O)c3ccc(-c4ccc(Cl)cc4)cc3)c(OCCCN3CCCCC3)cc2CC1` yielded an IC50 of 960 nM. `O=C(CCn1c2ccccc2c2ccccc21)NN=Cc1ccco1` was tested, and the IC50 was 590 nM. `O=C(CNC(=O)c1ccc(O)cc1)Nc1ccc(-c2cccc(-c3nc4ccc(C(F)(F)F)cc4[nH]3)c2)cc1` was tested, and the IC50 was 860 nM. With `C=C[C@H]1CN(CCCCCCC)CC[C@H]1CCNc1ccnc2ccc(OC)cc12` the IC50 was 60 nM. For `Cc1cc(-c2ccc(CNC3CCN(C)CC3)cc2)ccc1S(=O)(=O)NCc1ccccc1`, the IC50 was 850 nM. Work on `Cc1ccc(NCc2cccc(F)c2)cc1S(=O)(=O)N[C@@H]1CCN(C#N)C1` yielded an IC50 of 790 nM. `CC(NC(=O)c1ccc(O)c(-c2ccc(Cl)c(Cl)c2)c1)C(=O)NCCN1CCCCC1` (stereo not given) was tested, and the IC50 was 870 nM. `CN1C(=O)[C@H](NC(=O)[C@@H](Cc2ccccc2)NC(=S)Nc2ccccc2)N=C(c2ccccc2)c2ccccc21` gave an IC50 of 860 nM. In the case of `O=C(Nc1ccc(Cn2nc(Cl)c(N3CCCNCC3)cc2=O)cc1)c1ccc(-c2ccccc2)cc1`, the IC50 is reported as 710 nM. Compound `COc1ccc(C2CCC(NCCCCNC(=O)c3ccc(NC(=O)c4ccc(Cl)cc4)cc3)CC2)cc1` (stereo not given) has an IC50 of 630 nM. Compound `O=C(NC1CCN(CCN2CCC(c3c[nH]c4ccccc34)CC2)CC1)c1ccc(-c2ccc(C(F)(F)F)cc2)cc1` has an IC50 of 200 nM. `CCOc1ccc(-c2nonc2NC(=O)c2ccccc2Cl)cc1OCC` was tested, and the IC50 was 740 nM. Work on `CN(c1ccc2c(c1)nc(Nc1ccc(Cl)cc1)n2C)c1ccnc(Nc2ccc(CS(C)(=O)=O)cc2)n1` yielded an IC50 of 760 nM. Compound `CCN(CC)CCCNc1ncc2c(-c3ccc(NC(=O)Nc4cc(C(F)(F)F)ccc4F)cc3)nn(C)c2n1` has an IC50 of 220 nM. In the case of `CN(C)CCCOc1ccc(CCNCc2cccc(Oc3ccc(Cl)cc3)c2)cc1`, the IC50 is reported as 890 nM. With `Cc1ccc(NC(=O)NC2CCN(CCCCCNC(=O)[C@@H]3C[C@H]3c3ccc(Cl)c(Cl)c3)CC2)cc1` the IC50 was 540 nM. Compound `Cc1cccc2[nH]c(-c3cccc(-c4ccc(NC(=O)Nc5ccc(Cl)cc5)cc4)c3)nc12` has an IC50 of 200 nM. Compound `O=C(NCCc1ccc(Cl)c(Cl)c1)C1CCCN(C(=O)c2ccc(O)c(-c3ccc(Cl)c(Cl)c3)c2)C1` (stereo not given) has an IC50 of 780 nM. In the case of `NC(N)=NC(=O)Nc1cc(Br)c(Cl)c(C(F)(F)F)c1`, the IC50 is reported as 760 nM. In the case of `COC(=O)c1cc(OC2CCOC2=O)cc2c1OC(C)(C)O2` (stereo not given), the IC50 is reported as 810 nM. Compound `CN1CCN(CCCN(C(=O)Nc2cc(C(F)(F)F)cc(C(F)(F)F)c2)c2ccccc2Cc2ccccc2)CC1` has an IC50 of 1130 nM. With `CC(C)(C)c1nn(-c2ccccc2)c2[nH]c(=O)c(CNC3CCCCC3)cc12` the IC50 was 1250 nM. `O=S(=O)(NCCN1CCCC1)c1cccc(-c2ccc(CNCc3ccccc3)cc2)c1` was tested, and the IC50 was 1000 nM. Compound `Cc1[nH]c(C)c(-c2ccc(-c3ccc(C(F)(F)F)cc3C(F)(F)F)nc2)c(=O)c1Br` has an IC50 of 190 nM. Compound `c1ccc2c3c(ccc2c1)Sc1c(ccc2ccccc12)N3` has an IC50 of 1070 nM. `O=C(COc1cccc([N+](=O)[O-])c1)Nc1ccc(-c2nc3ccccc3[nH]2)cc1` was tested, and the IC50 was 750 nM. `O=C(/C=C/c1ccc(Cl)cc1)NCCCCCN1CCCN(C(=O)Nc2ccc(F)c(Cl)c2)CC1` showed an IC50 of 780 nM. For `COc1ccc(OCC(O)CN(Cc2ccccc2OC)C(=O)Nc2ccc(Br)cc2)cc1` (stereo not given), the IC50 was 750 nM. In the case of `Clc1ccccc1CNc1noc(-c2sccc2Br)n1`, the IC50 is reported as 790 nM. `c1cc(-c2ccc(CN3CCCCC3)cc2)cc(-c2nc3ccccc3[nH]2)c1` gave an IC50 of 580 nM. For `Cc1c(Cc2ccc(F)cc2)c(Cl)nc2nc(N)nc(N)c12`, the IC50 was 860 nM. Work on `CCCCCCCN1CC[C@@H](CCCc2ccnc3ccc(OCCC4CCNCC4)cc23)[C@@H](CC)C1` yielded an IC50 of 610 nM. `CC(C)C(C(=O)n1ncc2c3c(N)nc(N)nc3ccc21)C(C)C` was tested, and the IC50 was 650 nM. Work on `CC(C)C1=C[C@H]2C[C@]3(C4OCCO4)[C@@H]4CC[C@@H](C)[C@H]4C[C@@]2(COCc2cccc(C#N)c2)[C@]13C(=O)OC(c1ccccc1)c1ccccc1` yielded an IC50 of 1790 nM. Work on `CCCCNCc1ccc(-c2nc(CN(CCCn3ccnc3)C(=O)N[C@@H]3C[C@H]3c3ccccc3)cs2)cc1` yielded an IC50 of 740 nM. In the case of `COc1cc(OC)cc(-c2nn(-c3ccc([N+](=O)[O-])cc3Cl)c(=S)n2Cc2ccco2)c1`, the IC50 is reported as 840 nM. `CCC(C)CN1CCN(c2ccc(NC(=O)c3cccs3)cc2)C(C)C1` (stereo not given) gave an IC50 of 540 nM. Work on `O=C(CC1SC(N2N=C(c3cccs3)CC2c2ccccc2)=NC1=O)Nc1ccc(Cl)cc1` (stereo not given) yielded an IC50 of 1680 nM. Compound `COc1ccccc1CNc1ccnc(N2CC(Oc3ccc(F)cc3)C2)n1` has an IC50 of 850 nM. In the case of `O=C(Nc1ccc2c(c1)CCC2)c1nc(N2CCN(c3ccncc3)CC2)ccc1Cl`, the IC50 is reported as 1380 nM. In the case of `O=C(/C=C/c1ccc(Cl)c(Cl)c1)NCCCCCN1CCC(CCNC(=O)/C=C/c2ccc(Cl)c(Cl)c2)CC1`, the IC50 is reported as 560 nM. `Cc1ccc(CNC(=O)c2cc3c(=O)n4cccc(C)c4nc3n(CCN3CCOCC3)c2=N)cc1` gave an IC50 of 850 nM. `COc1ccc(C=C2SC(=N)N(c3ccccc3OC)C2=O)cc1` showed an IC50 of 300 nM. With `CN(C)CCOc1ccc(N2CCN(CCCCNC(=O)c3ccc(/C=C/c4cc(Cl)cc(Cl)c4)cc3)CC2)cc1` the IC50 was 1000 nM. Work on `FC(F)(F)Oc1ccc(-c2cnc3ccc(NCc4ccncc4)nn23)cc1` yielded an IC50 of 870 nM. For `CCc1sc(N2CCC(C)CC2)nc1C(=O)Nc1ccc(F)cc1C(F)(F)F`, the IC50 was 1090 nM. For `CCN(CC)CCN(CCN(CC)CC)c1ccc2c(c1)Sc1c(Cl)ccc(Cl)c1S2`, the IC50 was 880 nM. Compound `O=C(Nc1ccc(SC(F)(F)F)cc1)Nc1ccc(Cl)c(Cl)c1` has an IC50 of 910 nM. Compound `CCCCC([C@@H](Cc1ccc2ccccc2c1)C(=O)N[C@H](C(=O)NC)C(C)(C)C)N(O)C=O` (stereo not given in full) has an IC50 of 140 nM. With `O=C(Nc1cccc(F)c1)N(Cc1ccc(-c2ccc(CN3CCNCC3)cc2)cc1)C1CCN(Cc2ccccc2)CC1` the IC50 was 770 nM. `O=C(Nc1cccc(-c2cccc(-c3ccc(F)cc3)n2)c1)c1ccc([N+](=O)[O-])o1` was tested, and the IC50 was 360 nM. In the case of `CC(=NN=C(N)N)c1ccc2c(ccc3ccccc32)c1`, the IC50 is reported as 830 nM. Compound `Oc1ccc(CCNc2nc(NCCCOc3ccccc3-c3ccc(C(F)(F)F)cc3)nc(N3CCNCC3)n2)cc1` has an IC50 of 890 nM. `CCN1CCC(N(Cc2ccc(-c3ccc(C(F)(F)F)cc3)cc2)C(=O)Cn2c(SCc3cccc(F)c3F)cc(=O)c3ccccc32)C1` (stereo not given) was tested, and the IC50 was 880 nM. Compound `Cc1ccc(NC(=O)NC2CCN(CCC(NC(=O)Cc3ccccc3)c3ccc(Cl)c(Cl)c3)CC2)cc1` (stereo not given) has an IC50 of 620 nM. In the case of `CN1CCCN(Cc2cccc(-c3cccc(NS(=O)(=O)c4cccc5cccnc45)c3)c2)CC1`, the IC50 is reported as 760 nM. For `COc1ccc2nccc(N(C)CC3(O)CCC(NCc4ccc5c(n4)NC(=O)CS5)CC3)c2n1` (stereo not given), the IC50 was 700 nM. `Oc1ccccc1Nc1nc(NCc2ccco2)c2ccccc2n1` gave an IC50 of 640 nM. For `COc1ccc(Nc2nc(NCc3cccc(NS(C)(=O)=O)c3)cc(-c3ccc(OC)cc3)n2)cc1`, the IC50 was 1220 nM. `Cn1nccc1C(=O)NCCNCc1cccc(-c2cccc(-c3nc4ccc(F)cc4[nH]3)c2)c1` showed an IC50 of 260 nM. Compound `CCOC(=O)c1cnc2cc(N3CCCC3)c(Cl)cc2c1OCC` has an IC50 of 110 nM. Compound `O=C(Nc1ccccc1)N(Cc1cccc(-c2cccc(CNCc3ccc4c(c3)OCO4)c2)c1)C1CCN(Cc2ccccc2)CC1` has an IC50 of 280 nM. In the case of `CNS(=O)(=O)Cc1ccc(Nc2nccc(Nc3cccc4c3cnn4C(=O)Nc3ccccc3)n2)cc1`, the IC50 is reported as 960 nM. `O=[N+]([O-])c1ccc(-c2ccc(C=NNc3nc(Nc4ccccc4)nc(Nc4ccccc4)n3)o2)cc1` showed an IC50 of 1430 nM. Compound `CC(C)c1sc(N2CCN(C)CC2)nc1C(=O)NCCc1ccc(Cl)c(Cl)c1` has an IC50 of 1050 nM. `Cc1noc(C)c1-c1cccc(CNCc2ccc(-c3ccc(-c4nc5ccccc5[nH]4)s3)cc2)c1` gave an IC50 of 560 nM. `CCCC(C)NC(=O)[C@H](CC1CCCCC1)NC(=O)c1ccc(O)c(-c2ccc(OC)cc2)c1` (stereo not given in full) gave an IC50 of 1130 nM. For `COc1ccc(NC(=O)CCNc2cc(C)nc(NCc3cccc(C)c3)n2)cc1`, the IC50 was 1090 nM. `O=C(Nc1cccc(-c2nc3ccccc3[nH]2)c1)c1cccc(NC(=O)c2ccco2)c1` showed an IC50 of 360 nM. Work on `CCC(CC)N1CCN(CC(=O)Nc2ccc([N+](=O)[O-])cc2C(=O)Nc2cccc(OC)c2)CC1` yielded an IC50 of 870 nM. Compound `COc1cccc(CNC(=O)c2cccc(-c3ccc(CN4CCC(N5CCCC5)CC4)cc3)n2)c1` has an IC50 of 1790 nM. `O=C(NCCCCN1CCCC2c3ccc(O)cc3CCC21)c1ccc(-c2ccccc2)cc1` (stereo not given) was tested, and the IC50 was 730 nM and 940 nM. Compound `CCCNC(=O)CN1CN(c2ccccc2)C2(CCN(C(=O)c3ccc(C(C)(C)C)cc3)CC2)C1=O` has an IC50 of 470 nM. Work on `Cc1cc(N)c2cc(NC(=O)c3cccc(C(=O)Nc4ccc5nc(C)cc(N)c5c4)c3)ccc2n1` yielded an IC50 of 260 nM. `O=C(NC(c1ccccc1)c1ccc2cccnc2c1O)c1ccccc1` (stereo not given) was tested, and the IC50 was 430 nM. In the case of `CCN(CC)CCN(Cc1ccc(-c2ccc(C(F)(F)F)cc2)cc1)C(=O)Cn1c(CCc2cccc(F)c2F)cc(=O)c2c1CCCC2`, the IC50 is reported as 870 nM. `NC1=NC(c2ccccc2)N(OCc2ccccc2)C(N)=N1` (stereo not given) gave an IC50 of 40 nM. Work on `COc1cc(C2C(Oc3ccccc3)C(=O)N2Cc2ccc(F)cc2)cc(OC)c1OC` (stereo not given) yielded an IC50 of 960 nM. Compound `O=C(/C=C/c1ccc(Cl)c(Cl)c1)NCCCCCN1CCC(c2c[nH]c3ccccc23)CC1` has an IC50 of 780 nM. With `COc1ccc2nccc(NC(=O)N3CCC(NCc4cc5c(F)ccc(F)c5[nH]4)CC3)c2n1` the IC50 was 220 nM. `CN1CCCN(c2ccnc3cc4c(cc23)N(C(=O)c2ccccc2Cl)CC4)CC1` was tested, and the IC50 was 1180 nM. For `Cc1ccc(Cc2cnc(CN3CCCCC3)c(O)c2)cc1`, the IC50 was 890 nM. In the case of `O=C1CSc2ccc(CNC3CCN(CCc4c(Cl)cnc5ccc(Cl)cc45)CC3)nc2N1`, the IC50 is reported as 230 nM. Work on `CC(=O)Nc1cc(C(=O)Nc2ccc(C3=NCCN3)cc2)ccc1C(=O)Nc1ccc(C2=NCCN2)cc1` yielded an IC50 of 130 nM. With `CC1(C)N=C(N)N=C(N)N1c1ccccc1` the IC50 was 330 nM. `Cc1cccc2[nH]c(-c3ccc(-c4cccc(CNCCc5ccncc5)c4)s3)nc12` gave an IC50 of 140 nM. `O=C(Nc1ccc(-c2nc3ccccc3[nH]2)cc1)c1cncc(Br)c1` gave an IC50 of 810 nM. For `CC[C@H]1CN(CCCn2c3ccccc3c3ccccc32)[C@@H](CC)CN1`, the IC50 was 1080 nM. `O=C(NCc1cccc(Cl)c1)c1ccc(CNC2CCN(Cc3ccccc3)CC2)cc1` showed an IC50 of 880 nM.
